For data set [1], the system named is EGFP reporter gene silenced by DNA methylation (B2-17 cells). As to the kind of experiment: Compound effective assay: derepression of EGFP reporter in B2-17 reporter cells (image-based, titration). It is filed as cell-based. Particulars: for Emax: 72 h, read-out: Maximal RGFP% (maximal percentage of EGFP+ cells in the dose-response curve); for EC50: dose-response of EGFP+ cells, read-out: EC50 (relative half maximal effect concentration); for activity of derepressing the EGFP reporter gene silenced by DNA methylation (in words): compared with hit compound LX-3. From the text:
(§1) To identify novel small molecules targeting gene repression, we devised an image-based high-throughput screening system using the engineered HEK 293 F cell (termed as B2-17 cells) as report cell line. A chemical library containing 308,251 small molecules was screened in this system. Purposed for unbiased compound screening, this library had been used in a variety of studies (Sun et al., [2012]; Wang et al., [2013]; Dong et al., [2015]; Li et al., [2016]). Hundred and fifty eight compounds which reactivated reporter genes in more than half of cells were selected as hits. Next, we performed titration experiments for all these hits in the B2-17 cell line. The efficacy of each compound was evaluated by its maximal percentage of EGFP^+ cells in the dose-response curve (maximal RGFP) and relative half maximal effect concentration (EC50). The toxicity of the hits was also tested in parallel, measured by number of viable cells in each treatment. The assay is based on quantitative analysis of ATP, an indicator of metabolically active cells. For each compound, we calculated the relative half maximal growth inhibitory concentration (IC50), based on the abovementioned assay.
Procedure for cell culture and establishment of the reporter cell line were reported in our previously published paper (Li et al., [2018]).
Before plating cells, 384-well plates (ViewPlate, PerkinElmer) were coated with PDL (poly-D-lysine, Sigma). For each well, 1,300 B2-17 cells were plated by using a Matrix Wellmate microplate dispenser (Thermo Scientific). Then, 0.25 μL of compound was added to each well by using a versatile pipetting robot, the Biomek FX workstation (Beckman Coulter), to give a final compound concentration of 5 μM. After treatment for 72 h, the cell nuclei were stained by Hoechst 33342 (Sigma) before imaging.
The cells were imaged with Opera LX (PerkinElmer, three views per well by using 10 x (air) objective lens). Images were analyzed with the Columbus system, the mean percentage of EGFP+ cells (RGFP) was obtained to extrapolate the number of EGFP expressing cells and Hoechst-stained nuclei.
For the titration assay, the positive compounds were diluted in DMSO at concentrations ranging from 0.625 to 4 mM. Then, the B2-17 cells were treated by gradient compound and imaged as described before.
For each compound, a dose-response series was generated by using Origin 6.0 Pro software. The dot plot was fit by a DoseResp curve and then the EC50 was calculated.
Background: A reporter such as luciferase makes a cellular process visible.

A further data set has as its system HEK 293 F cells. As to the kind of experiment: Viability assays (CellTiter-Glo, ATP). It is filed as cell-based. Particulars: viable cells by ATP quantitation, 3 days incubation, Figure 2 says B2-17 cells, method says HEK 293 F cells, read-out: IC50 (relative half maximal growth inhibitory concentration).
Text: as §1
HEK 293 F cells were plated in 384-well, flat-bottom, tissue culture dishes (Corning) and treated with compounds, incubated 3 days, and assayed for viability using the CellTiter-Glo Luminescent Cell Viability Assay (Promega) according to the manufacturer's protocol. The […] with an EnSight plate reader (Perkin Elmer). Data were normalized to the untreated control (100% viability). Each treatment was tested in two independent assays, each containing 3 replicates. The titration-viability curves of each compound were also generated by using Origin 6.0 Pro software.

Another data set relates to p38 MAPK pathway. Set-up: method as in Li et al., 2018. Particulars: multiple cell types; ref Li et al., 2018; cited from earlier work.
Data set [2] in a line: Water solubility (qualitative remark). It is filed as physicochemical. The following applies: 14b vs. 14a.

Where two headings read alike, the source gives them in different places.

As for `O=C(Cn1c2ccccc2c(=O)c2ccccc21)N/N=C/c1ccc(Sc2nc3ccccc3s2)c([N+](=O)[O-])c1` [LX-4], in data set [1] (B2-17 cells, 72 h treatment), the Emax was 68% and the EC50 worked out at 2 µM. For the same compound, the IC50 in the data set with HEK 293 F cells (HEK293F, 72 h) worked out at 4.2 µM. The “activation of the p38 MAPK pathway” value in the data set with p38 MAPK pathway is listed as “selectively activate the p38 MAPK pathway”.

On to `O=C(Cn1c2ccccc2n2nc(-c3cccs3)nc12)c1c(F)c(F)c(F)c(F)c1F` [7g, 1-(perfluorophenyl)-2-(2-(thiophen-2-yl)-4H-benzo[4,5]imidazo[1,2-b][1,2,4]triazol-4-yl)ethan-1-one], for which the Emax in data set [1] (B2-17 cells, 72 h treatment) was 10%. Also, the “activity of derepressing the EGFP reporter gene silenced by DNA methylation (in words)” value (“activity” for short) in data set [1] was “significantly decreased”. Moreover, the IC50 in the data set on HEK 293 F cells (HEK293F, 72 h) turned out to be 1.1 µM.

On to “3-(4-bromophenyl)-1-(2-(thiazol-2-yl)-4H-benzo[4,5] imidazo[1,2-b][1,2,4]triazol-4-yl)propan-1-one [31c]”, for which, in data set [1] (B2-17 cells, 72 h treatment), the “Maximal RGFP% (maximal percentage of EGFP+ cells in the dose-response curve)” value is reported as 9.0%. Also, in data set [1], the “activity” value is “loss of activity”. The IC50 in the data set with HEK 293 F cells came out at 15.9 µM.

Take `O=C(Cn1c2ccccc2n2nc(-c3cccs3)nc12)c1cccs1` [9c, 1-(thiophen-2-yl)-2-(2-(thiophen-2-yl)-4H-benzo[4,5]imidazo[1,2-b][1,2,4]triazol-4-yl)ethan-1-one]: in data set [1] (B2-17 cells, 72 h treatment), the Emax was found to be 40% and the EC50 was 2.3 µM. Further, the IC50 with HEK 293 F cells (HEK293F, 72 h) stood at 4.9 µM.

Consider `O=C(Cn1c2ccccc2n2nc(-c3cccs3)nc12)c1ccc(O)cc1` [7h, 1-(4-hydroxyphenyl)-2-(2-(thiophen-2-yl)-4H-benzo[4,5]imidazo[1,2-b][1,2,4]triazol-4-yl)ethan-1-one], for which, in data set [1] (B2-17 cells, 72 h treatment), the Emax stood at 56% and the EC50 turned out to be 5.8 µM. Also, in data set [1], the “activity” value is reported as “decreased to some extent”. Also, the IC50 in the data set with HEK 293 F cells (HEK293F, 72 h) is 16.7 µM.

On to `O=C(Cn1c2ccccc2n2nc(-c3cccs3)nc12)c1ccncc1` [9d, 1-(pyridin-4-yl)-2-(2-(thiophen-2-yl)-4H-benzo[4,5]imidazo[1,2-b][1,2,4]triazol-4-yl)ethan-1-one], for which, in data set [1] (B2-17 cells, 72 h treatment), the Emax turned out to be 35% and the EC50 turned out to be 13.6 µM. The IC50 with HEK 293 F cells (HEK293F, 72 h) came out at 6.5 µM.

Take `O=C(Cn1c2ccccc2n2nc(-c3ccccc3)nc12)c1ccc(Br)cc1` [22a, 1-(4-bromophenyl)-2-(2-phenyl-4H-benzo[4,5]imidazo[1,2-b][1,2,4]triazol-4-yl)ethan-1-one]: in data set [1] (B2-17 cells, 72 h treatment), the Emax stood at 6%. Further, the “activity” value in data set [1] is “decreased significantly or even disappeared”. In the data set with HEK 293 F cells (HEK293F, 72 h), the IC50 turned out to be 4.4 µM.

For the compound `Cc1cc2c(cc1C)n1nc(-c3nccs3)nc1n2CC(=O)c1ccc(Br)cc1` [14b, 1-(4-bromophenyl)-2-(6,7-dimethyl-2-(thiazol-2-yl)-4H-benzo[4,5]imidazo[1,2-b][1,2,4]triazol-4-yl)ethan-1-one], in data set [1] (B2-17 cells, 72 h treatment), the Emax turned out to be 58% and the EC50 is 3.4 µM. The “activity” value in data set [1] is given as “comparable with the hit compound LX-3”. In addition, in the data set with HEK 293 F cells (HEK293F, 72 h), the IC50 came to 2.1 µM. Also, the “water solubility (in words)” value in data set [2] was “significantly increased”.

As to `CCc1ccc(CNc2ccc(CNc3ncn[nH]3)cc2)cc1` [LX-2], in data set [1] (B2-17 cells, 72 h treatment), the Emax was found to be 67% and the EC50 came to 2.2 µM. Further, the IC50 with HEK 293 F cells (HEK293F, 72 h) worked out at 7.8 µM.

`O=C(Cn1c2ccccc2n2nc(-c3ccc(Cl)s3)nc12)c1ccc(Br)cc1` [compound 29, 1-(4-bromophenyl)-2-(2-(5-chlorothiophen-2-yl)-4H-benzo[4,5]imidazo[1,2-b][1,2,4]triazol-4-yl)ethan-1-one]: in data set [1] (B2-17 cells, 72 h treatment), the Emax came to 83% and the EC50 worked out at 8.9 µM. Also, the “activity” value in data set [1] was “little reduction of potency”. The IC50 with HEK 293 F cells (HEK293F, 72 h) came to 13.6 µM.

On to `O=C(O)c1ccc(C(=O)Cn2c3ccccc3n3nc(-c4cccs4)nc23)cc1` [7j, 4-(2-(2-(thiophen-2-yl)-4H-benzo[4,5]imidazo[1,2-b][1,2,4]triazol-4-yl)acetyl)benzoic acid], for which the Emax in data set [1] (B2-17 cells, 72 h treatment) was 7%. In addition, the “activity” value in data set [1] is on record as “decreased to some extent”. The IC50 with HEK 293 F cells (HEK293F, 72 h) is 4.8 µM.

For the compound `O=C(Cn1c2ccccc2n2nc(-c3cccs3)nc12)c1ccc(Br)cc1` [LX-3, 1-(4-bromophenyl)-2-(2-(thiophen-2-yl)-4H-benzo[4,5]imidazo[1,2-b][1,2,4]triazol-4-yl)ethan-1-one], in data set [1] (B2-17 cells, 72 h treatment), the Emax is 79% and the EC50 was found to be 2.8 µM. For the same compound, the IC50 in the data set with HEK 293 F cells (HEK293F, 72 h) worked out at 5.1 µM. Besides, the “activation of the p38 MAPK pathway” value in the data set on p38 MAPK pathway is “selectively activate the p38 MAPK pathway”.

As for `O=C(Cn1c2ccc(Br)cc2n2nc(-c3ccc(Br)s3)nc12)c1ccc(Br)cc1` [17c, 2-(7-bromo-2-(5-bromothiophen-2-yl)-4H-benzo[4,5]imidazo[1,2-b][1,2,4]triazol-4-yl)-1-(4-bromophenyl)ethan-1-one], in data set [1] (B2-17 cells, 72 h treatment), the Emax came to 28% and the EC50 was 21.8 µM. In addition, the IC50 with HEK 293 F cells (HEK293F, 72 h) was determined as 3.8 µM.

Take `COc1ccccc1-c1nc2n(CC(=O)c3ccc(Br)cc3)c3ccccc3n2n1` [22b, 1-(4-bromophenyl)-2-(2-(2-methoxyphenyl)-4H-benzo[4,5]imidazo[1,2-b][1,2,4]triazol-4-yl)ethan-1-one]: in data set [1] (B2-17 cells, 72 h treatment), the Emax came out at 21% and the EC50 amounted to 6.8 µM. Besides, the “activity” value in data set [1] is “decreased significantly or even disappeared”. In addition, the IC50 in the data set with HEK 293 F cells (HEK293F, 72 h) is 3.3 µM.

In the case of `Cc1cc(NC(=O)CSc2nc3ccc(Br)cc3c3nc4ccccc4n23)no1` [LX-6], in data set [1] (B2-17 cells, 72 h treatment), the Emax came out at 71% and the EC50 worked out at 4.2 µM. The IC50 in the data set on HEK 293 F cells (HEK293F, 72 h) came out at 5 µM.

`Nc1ccc(C(=O)Cn2c3ccccc3n3nc(-c4cccs4)nc23)cc1` [7i, 1-(4-aminophenyl)-2-(2-(thiophen-2-yl)-4H-benzo[4,5]imidazo[1,2-b][1,2,4]triazol-4-yl)ethan-1-one]: the Emax in data set [1] (B2-17 cells, 72 h treatment) is 19%. In addition, the “activity” value in data set [1] was “decreased to some extent”. Besides, the IC50 in the data set on HEK 293 F cells (HEK293F, 72 h) stood at 5.3 µM.

In the case of `O=C(Cn1c2ccccc2n2nc(-c3cccs3)nc12)c1ccccc1` [7a, 1-phenyl-2-(2-(thiophen-2-yl)-4H-benzo[4,5]imidazo[1,2-b][1,2,4]triazol-4-yl)ethan-1-one], the Emax in data set [1] (B2-17 cells, 72 h treatment) was 7%. In addition, the “activity” value in data set [1] was “lost”. Besides, the IC50 in the data set with HEK 293 F cells (HEK293F, 72 h) came to 1.9 µM.

Regarding `Cc1n[nH]c(Nc2ccc(/N=N/c3ccccc3)cc2)c1[N+](=O)[O-]` [LX-5], in data set [1] (B2-17 cells, 72 h treatment), the Emax worked out at 89% and the EC50 was 4.1 µM. Further, in the data set on HEK 293 F cells (HEK293F, 72 h), the IC50 came out at 4.2 µM. In the data set with p38 MAPK pathway, the “activation of the p38 MAPK pathway” value was “selectively activate the p38 MAPK pathway”.

Source of the values: PMC6309140, “Synthesis and Evaluation of a New Type of Small Molecule Epigenetic Modulator Containing Imidazo[1,2-b][1,2,4]triazole Motif” (Frontiers in Chemistry, 2018).
